{
  "source": "patent US20240182948A1",
  "about": "“METHODS AND COMPOSITIONS FOR DETECTION OF TUMOR DNA” (The Broad Institute, Inc., priority 2021, published 2024)",
  "test_system": "macrophages co-incubated with apoptotic KPLG cells",
  "test": "Chloroquine treatment of macrophages after co-incubation with apoptotic KPLG cells; recovery of tumor DNA from cell fractions",
  "format": "cell-based, murine",
  "experimental": "FIG. 9A: Cytoplasmic DNA mass recovered from macrophages with or without 25 μM CQ treatment for 3 hours. FIG. 9B: Nuclear DNA mass recovered from macrophages with or without 25 μM CQ treatment for 3 hours. FIG. 9C: Cytoplasmic KRAS G12D to WT ratio. Apoptotic KPLG cells were washed away after 1 hour of co-incubation with macrophages before CQ treatment. FIG. 9D: Nuclear KRAS G12D to WT ratio. Apoptotic KPLG cells were washed away after 1 hour of co-incubation with macrophages before CQ treatment.\nTo test if pharmacologically blocking the DNA degradation pathway could lead to increased recovery of tumor DNA in macrophages, apoptotic KPLG cells were co-incubated with macrophage cells for 1 hour, after which apoptotic cells were washed away, and macrophages were treated either with or without 25 μM chloroquine.\nCell lines: KPLG cells were kindly provided by the Jacks Laboratory at the Massachusetts Institute of Technology (MIT). BMDM were harvested from femurs of wild-type […] mice and DNase 2a−/− mice. KPLG cells were cultured in DMEM supplemented with 10% fetal bovine serum (Gibco) and 1% penicillin/streptomycin (Corning); BMDM cells were cultured in DMEM supplemented with 10% fetal bovine serum (Gibco) and 1% penicillin/streptomycin (Corning), and 15% L929 conditioned medium. All cells were cultured in a humidified atmosphere of 95% air and 5% CO2 at 37° C. The KPLG cell line was declared pathogen free after being subjected to murine pathogen testing by the Diagnostic Laboratory of the Division of Comparative Medicine (MIT).\nCell fractionation and DNA extraction: Cells were collected by centrifugation at 3000×g for 7 min. The cells were lysed using four volumes of lysis buffer (20 mM Tris-HCl, pH 7.4, 10 mM KCl, 2 mM MgCl2, 1 mM DTT, and 1 mM EDTA) for 20 min. on ice. The nuclear pellet was collected by centrifugation twice at 800×g for 5 min. The mitochondrial fraction was collected by centrifugation twice at 10,000×g for 10 min. The collected supernatant was used as the cytoplasmic fraction. […]",
  "data": [
    {"smiles": "CCN(CC)CCCC(C)Nc1ccnc2cc(Cl)ccc12", "note": "(stereo not drawn) [Chloroquine, chloroquine]", "values": [
      {"measurement": "digestion of cytoplasmic tumor-derived DNA by macrophages", "setting": "25 μM CQ treatment for 3 hours, legend of FIGS. 9A-9D", "result": "inhibits digestion"},
      {"measurement": "total cytoplasmic DNA mass recovered from macrophages", "setting": "25 μM chloroquine vs. no treatment, apoptotic KPLG cells washed away after 1 hour of co-incubation, FIG. 9A: treatment for 3 hours", "result": "increase"},
      {"measurement": "presence of KRAS G12D in the cytoplasmic DNA fraction of macrophages (KRAS G12D to WT ratio)", "setting": "25 μM chloroquine vs. no treatment, apoptotic KPLG cells washed away after 1 hour of co-incubation, TaqMan qPCR", "result": "increase"}
    ]}
  ]
}
